“And” between values parts separate entries of the source, which are not always exact repeats. Identical values can stand only once.
Key:
C2C12 cells = assay: MTT cell viability assay; format: cell-based, mouse; settings: for cell viability after one hour of exposure: C2C12, 1 hour, up to 50 μM; for concentration at which cell viability was decreased: C2C12, 24 hours of exposure
Experimental: Mouse C2C12 skeletal muscle myoblasts (purchased from ATCC, Manassas, Va., USA) were first seeded in 75 cm2 flasks using a culture medium consisting of DMEM (Life Technologies, Grand Island, N.Y., USA), 10% fetal bovine serum (FBS; Atlanta Biologicals, Lawrenceville, Ga., USA), high glucose, L-glutamine, phenol red, 1 mM sodium pyruvate and 100 units/mL penicillin, 100 μg/mL streptomycin. The C2C12 cells were incubated at 37° C. in a humidified atmosphere of 5% CO2 until they were confluent. Then, they were obtained by trypsinization and seeded at a specific density in the plates of choice depending on the experiment.
For cell viability experiments (MTT assay), C2C12 cells were plated in 96-well plates at a density of 4,000 cells per well in 200 μL of growth medium (identical to the culture medium). After 48 hours of incubation, the medium was removed and the cells were treated with fresh solutions of various concentrations of XN, DXN or TXN in phenol red-free growth medium. The final concentrations of XN, DXN, TXN were 1, 2, 5, 8, 10, 25, 50 μM, all in quadruplicate wells, in the 96-well plates. The medium used consists of phenol red free DMEM (Life Technologies, Grand Island, N.Y., USA), 10% FBS, 1% glutamine, 1 mM of sodium pyruvate and 100 units/mL penicillin, 100 μg/mL streptomycin. The plates were then incubated for 24 hours or 1 hour. After removing the medium, the cells were treated with 0.5 mg/mL solution of MTT 3-(4,5-dimethylthiazol-2-yl)-2,5-diphenyltetrazolium bromide in phenol red-free growth medium and incubated for two hours. After removing the medium and adding a solution of acidified isopropanol to each well, the absorbance of each well was measured at 570 nm by using a spectrometer (SpectraMax 190).
Two MTT assays were conducted (FIGS. 11A and 11B): after one hour and 24 hours of exposure.

C2C12 muscle mouse cells = assay: Seahorse cell titration assay; format: cell-based; settings: 2 μM, 20,000 cells/well
Experimental: As advised by Seahorce Bioscience, running a cell titration assay with FCCP at different concentrations prior to any Seahorse experiment is an important step to determine proper cell density for the cell line used. Then, oligomycin was tested at different concentrations at the proper cell density in order to determine the optimal working concentration. These optimization and titration assays offered starting conditions in determining the uncoupling effects on the mitochondria.
In the cell titration assay, cells were plated at 10,000, 20,000 and 40,000 cells/wells and FCCP was injected at 0.3 μM or 0.5 μM. […] DXN was also injected at 2 μM at 20,000 cells/well to have an idea of its potential effects on OCR.

[1] = test system: mitochondrial transmembrane potential in C2C12 cells; assay: JC-1 assay of mitochondrial transmembrane potential; format: cell-based, mouse; settings: 5 μM, 8 μM, 25 μM and 50 μM; one hour of exposure
Experimental: Cells were plated at a density of 80,000 cells per well in black 96-well plates and incubated for 24 hours at 37° C. (5% CO2). They were then treated with fresh solutions of various concentrations of XN, DXN or TXN in growth medium. The final concentrations of XN, DXN, TXN were 1, 2, 5, 8, 25, 50 μM, all in quadruplicate wells, in the 96-well plates. After one hour of exposure to the compounds at 37° C. (5% CO2), the cells were treated with 10 μL of a JC-1 staining solution (freshly prepared by diluting 11 fold 100 μL of the JC-1 agent furnished from the assay kit). After 15 to 30 minutes of incubation (37° C., 5% CO2), the cells were washed three times with the Cell-Based Assay Buffer (prepared by dissolving three buffer tablets of the kit in 300 mL of MilliQ water). The plates were then analyzed by a fluorescent plate reader (SpectraMax Gemini XS) at 560-595 nm and 485-535 nm.
JC-1 can selectively enter into mitochondria and reversibly change color from green to red as the membrane potential increases. In healthy cells with high mitochondrial transmembrane potential, JC-1 spontaneously forms complexes known as J-aggregates with intense red fluorescence with excitation and emission at 560 nm and 595 nm, respectively. […] The ratio of fluorescence intensity of J-aggregates to fluorescence intensity of J-monomers can be used as an indicator of cell heath or mitochondrial state. […] A decrease in the values of the ratios compared to the control is indicative of an alteration in the potential across the mitochondrial membrane.

C57BL6/J mice = assay: Intraperitoneal glucose tolerance test in high-fat fed mice; format: in vivo, mouse; settings: for insulin sensitivity in the GTT compared to control (vehicle-diet) mice: 30 mg/kg body weight/day, weeks 4 and 11; for Mean Plasma Glucose Level 0 Min: 30 mg/kg/day in high fat diet, 6 h fast, before glucose injection; for Mean Plasma Glucose Level 15 min / Mean Plasma Glucose Level 30 min / Mean Plasma Glucose Level 60 min / Mean Plasma Glucose Level 120 min / peak glucose level (group average) / time at which peak glucose level was reached / peak glucose level / time at which peak glucose level occurred: 30 mg/kg/day; for Mean Plasma Glucose Level 15 min / Mean Plasma Glucose Level 30 min / Mean Plasma Glucose Level 60 min / Mean Plasma Glucose Level 120 min: after 2 g/kg glucose i.p.; for peak glucose level (group average) / time at which peak glucose level was reached: Week 4 glucose tolerance test; for peak glucose level / time at which peak glucose level occurred: Week 11 glucose tolerance test
Experimental: The total number of C57BL6/J mice was 48, with 12 mice belonging to each of 4 treatment groups. Duration of the feeding was 14 weeks. Mouse feed contained high fat content (60% of kCal), and was supplemented with XN, DXN, or TXN in the treatment groups. XN, DXN and TXN content within the mouse diet were designed to deliver a dose of 30 mg/kg/day body weight. Food intake was measured three times per week by weighing the food pellet before placement in the cage, and at the time of feed changing by weighing uneaten food. Mice were unrestricted in dietary intake, being allowed to eat as much food as desired. Mice were weighed once per week. Groups included low dose (30 mg/kg) XN, DXN, TXN and no supplement control. Mice were maintained in accordance with the Oregon State University Institutional Animal Care and Use Committee (IACUC) regulations. One mouse was maintained on a standard AIN-93M chow diet to be used as a healthy reference during glucose tolerance assays.
Glucose tolerance tests were conducted during week 4 and week 11 of the feeding trial. Five mice from each treatment group were used in each glucose tolerance assay. Mice were fasted for 6 hours prior to baseline blood glucose testing. Blood was collected from the mice by tail puncture, and glucose measurements were taken using a One Touch UltraMini (LifeScan, Inc.) glucometer. Mice were weighed and then given an intraperitoneal (IP) injection of glucose equal to 2 g/kg body weight.

[2] = Dissolution in Seahorse running medium; format: physicochemical; settings: 0.1% of FBS, 37° C.
[3] = Low and high XN diet feeding for 12 weeks, body weight and food intake; format: in vivo, mouse; settings: high-fat fed C57BL/6J mice; for body weight gain compared to vehicle: oral, 12 weeks
Experimental: FIG. 27 is a graph showing weekly body weights of C57BL/6J mice fed control, low XN (30 mgkg body weight/day) and high XN (60 mg/kg body weight/day) diets for 12 weeks.
FIG. 28 is a graph showing no difference in food intake between treated and untreated mice for the studies from FIG. 27.

rats = assay: XN administered to rats at human equivalent doses; format: in vivo, rat
Experimental: In particular disclosed embodiments, the human equivalent dose of 180 mg XN/day reduced body weight gain by 14% and reduced fasting plasma glucose by 25% when administered to rats. In some embodiments, the human equivalent dose of 60 or 180 mg XN/day reduced the formation of products of dysfunctional fatty acid oxidation by up to 55% when administered to rats. Solely by way of example, the range 0.1-500 mg described above in Table 2 for XN covers the effective human equivalent doses of 60 mg/day to 180 mg/day of XN.

mice [4] = assay: Mouse LD50; format: in vivo
mice [5] = settings: mouse; cited from earlier work
[6] = human equivalent dose of 180 mg XN/day

Structure (SMILES) | cell viability after one hour of exposure (C2C12 cells) | concentration at which cell viability was decreased (C2C12 cells) | ratio of aggregates to monomers (JC-1) versus control [1] | insulin sensitivity in the GTT compared to control (vehicle-diet) mice (C57BL6/J mice) | Mean Plasma Glucose Level 0 Min (C57BL6/J mice; Week 4) | Mean Plasma Glucose Level 15 min (C57BL6/J mice; Week 4) | Mean Plasma Glucose Level 30 min (C57BL6/J mice; Week 4) | Mean Plasma Glucose Level 60 min (C57BL6/J mice; Week 4) | Mean Plasma Glucose Level 120 min (C57BL6/J mice; Week 4) | peak glucose level (group average) (C57BL6/J mice) | time at which peak glucose level was reached (C57BL6/J mice) | Mean Plasma Glucose Level 0 Min (C57BL6/J mice; Week 11) | Mean Plasma Glucose Level 15 min (C57BL6/J mice; Week 11) | Mean Plasma Glucose Level 30 min (C57BL6/J mice; Week 11) | Mean Plasma Glucose Level 60 min (C57BL6/J mice; Week 11) | Mean Plasma Glucose Level 120 min (C57BL6/J mice; Week 11) | peak glucose level (C57BL6/J mice) | time at which peak glucose level occurred (C57BL6/J mice) | further results
COc1cc(O)c(CC=C(C)C)c(O)c1C(=O)CCc1ccc(O)cc1 [DXN, α,β-dihydroxanthohumol] | did not significantly affect cell viability | 8 µM | changed significantly from the control values | improved insulin sensitivity | 297.6 (±6.6) mg/dL | 396.4 (±55.9) mg/dL | 423.0 (±76.3) mg/dL | 342.8 (±70.4) mg/dL | 176.2 (±40.0) mg/dL | 423.0 mg/dL and 407.2 mg/dL | 30 min | 249.8 (±22.1) mg/dL | 474.4 (±46.0) mg/dL | 508.0 (±41.2) mg/dL | 494.8 (±38.9) mg/dL | 298.8 mg/dL and 298.8 (±45.5) mg/dL | 508.0 mg/dL | 30 min | increase of OCR (C2C12 muscle mouse cells): 204 % of the baseline; concentration dissolved in running medium [2]: up to 25 μM
COc1cc(O)c(CCC(C)C)c(O)c1C(=O)CCc1ccc(O)cc1 [TXN, tetrahydroxanthohumol] | did not significantly affect cell viability | 25 µM | changed significantly from the control values | improved insulin sensitivity | 193.6 (±17.9) mg/dL | 407.2 (±38.1) mg/dL | 394.6 (±50.1) mg/dL | 235.8 (±21.9) mg/dL | 149.0 (±15.3) mg/dL | 407.2 mg/dL and 423.0 mg/dL | 15 min | 245.0 (±17.8) mg/dL | 408.0 (±29.8) mg/dL | 513.6 (±37.6) mg/dL | 450.8 (±5.0) mg/dL | 266.8 mg/dL and 266.8 (±32.1) mg/dL | 513.6 mg/dL | 30 min | 
COc1cc(O)c(CC=C(C)C)c(O)c1C(=O)/C=C/c1ccc(O)cc1 [XN, xanthohumol] | did not significantly affect cell viability | 50 µM | changed significantly from the control values | improved insulin sensitivity | 283.4 (±4.6) mg/dL | 508.8 (±28.3) mg/dL | 456.0 (±41.5) mg/dL | 389.6 (±29.8) mg/dL | 167.0 (±3.8) mg/dL | 508.8 mg/dL | 15 min | 193.2 (±21.9) mg/dL | 465.0 (±30.0) mg/dL | 452.0 (±41.6) mg/dL | 463.8 (±52.2) mg/dL | 373.4 mg/dL and 373.4 (±58.1) mg/dL | 465.0 mg/dL | 15 min | food intake ([3]; 30 and 60 mg/kg): not altered; body weight gain compared to vehicle ([3]; 30 mg/kg (low dose)): gain less weight; body weight gain compared to vehicle ([3]; 60 mg/kg (high dose)): gain less weight; reduction of body weight gain (rats; [6]): 14%; reduction of fasting plasma glucose (rats; [6]): 25%; reduction of the formation of products of dysfunctional fatty acid oxidation (rats; human equivalent dose of 60 or 180 mg XN/day): up to 55%; LD50 dose relative to the effective dose level (mice [4]): more than 50 times; LD50 (mice [5]): > 2000 mg/kg

— patent publication US20160008298A1, “XANTHOHUMOL-BASED COMPOUNDS AND COMPOSITIONS THEREOF, AND METHODS OF MAKING AND USING THE SAME” (Oregon State University, priority 2014, published 2016)
